Source: patent US20240002391A1, “4-ALKOXYPYRROLO[2,1-F][1,2,4]TRIAZINES AND PREPARATION AND USES THEREOF” (BioSplice Therapeutics, Inc., priority 2022, published 2024)

These molecules were tested against recombinant DYRK1A kinase (Homo sapiens (Human), UniProt Q13627) (assay: DYRK1A kinase assay (Ser/Thr 18 peptide Z-lyte FRET)). Conditions: DYRK1A kinase activity, Z-lyte Ser/Thr 18 peptide, 15 μM ATP; method text calls the value IC50; read-out: EC50 (the source's name).
Assay type: biochemical
Summary of the method: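 Z-lyte FRET: recombinant DYRK1A 0.25 μg/mL, ATP 15 μM, Ser/Thr 18 peptide 4 μM, with compound (11-point 1:3, 10 μM top) 1 h at room temperature, then development reagent 1 h. Coumarin/fluorescein emission ratio converted to % phosphorylation; IC50 by non-linear regression, duplicates.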
In the case of `CNC(=O)[C@]1(C)C[C@@H](Nc2nc(OC)c3c(-c4ccc5ncccc5c4)ccn3n2)C1` [Compound 1038, trans-3-((4-Methoxy-5-(quinolin-6-yl)pyrrolo[2,1-f][1,2,4]triazin-2-yl)amino)-N,1-dimethylcyclobutane-1-carboxamide], the IC50 is reported as 0.5 nM.
For `COc1nc(N[C@H]2C[C@](C)(C(=O)NC3CC3)C2)nn2ccc(-c3ccc4ncccc4c3)c12` [Compound 1039, trans-N-Cyclopropyl-3-((4-methoxy-5-(quinolin-6-yl)pyrrolo[2,1-f][1,2,4]triazin-2-yl)amino)-1-methylcyclobutane-1-carboxamide], the IC50 was 1.7 nM.
Molecule `COc1nc(N[C@H]2C[C@](C)(C(=O)NC3(C)CCC3)C2)nn2ccc(-c3ccc4ncccc4c3)c12` [Compound 1040, trans-3-((4-Methoxy-5-(quinolin-6-yl)pyrrolo[2,1-f][1,2,4]triazin-2-yl)amino)-1-methyl-N-(1-methylcyclobutyl)cyclobutane-1-carboxamide] has an IC50 of 2.7 nM.
`COc1nc(N[C@H]2C[C@](C)(C(=O)NC3CC(F)(F)C3)C2)nn2ccc(-c3ccc4ncccc4c3)c12` [Compound 1041, trans-N-(3,3-Difluorocyclobutyl)-3-((4-methoxy-5-(quinolin-6-yl)pyrrolo[2,1-f][1,2,4]triazin-2-yl)amino)-1-methylcyclobutane-1-carboxamide] gave an IC50 of 0.9 nM.
`COc1nc(N[C@H]2C[C@](C)(C(=O)NC3(C)COC3)C2)nn2ccc(-c3ccc4ncccc4c3)c12` [Compound 1042, trans-3-((4-Methoxy-5-(quinolin-6-yl)pyrrolo[2,1-f][1,2,4]triazin-2-yl)amino)-1-methyl-N-(3-methyloxetan-3-yl)cyclobutane-1-carboxamide] was tested, and the IC50 was 1.2 nM.
With `COc1nc(N[C@H]2C[C@@](C)(N(C)C)C2)nn2ccc(-c3ccc4ncccc4c3)c12` [Compound 1043, cis-N3-(4-Methoxy-5-(quinolin-6-yl)pyrrolo[2,1-f][1,2,4]triazin-2-yl)-N1,N1,1-trimethylcyclobutane-1,3-diamine] the IC50 was 2.8 nM.
In the case of `COc1nc(N[C@H]2CCN(CC(C)(C)O)C[C@H]2F)nn2ccc(-c3ccc4ncccc4c3)c12` [Compound 1045, 1-((3R,4S)-3-Fluoro-4-((4-methoxy-5-(quinolin-6-yl)pyrrolo[2,1-f][1,2,4]triazin-2-yl)amino)piperidin-1-yl)-2-methylpropan-2-ol], the IC50 is reported as 4.5 nM.
Work on `COc1nc(N[C@H]2CCN(C(C)=O)C[C@H]2F)nn2ccc(-c3ccc4ncccc4c3)c12` [Compound 1047, 1-((3R,4S)-3-Fluoro-4-((4-methoxy-5-(quinolin-6-yl)pyrrolo[2,1-f][1,2,4]triazin-2-yl)amino)piperidin-1-yl)ethan-1-one] yielded an IC50 of 2.1 nM.
`COc1nc(N[C@@H]2CCN(C(C)=O)CC2(F)F)nn2ccc(-c3ccc4ncccc4c3)c12` [Compound 1048, (R)-1-(3,3-Difluoro-4-((4-methoxy-5-(quinolin-6-yl)pyrrolo[2,1-f][1,2,4]triazin-2-yl)amino)piperidin-1-yl)ethan-1-one] gave an IC50 of 1.3 nM.
Work on `COc1nc(N[C@@H]2CCC(=O)N(C)C2)nn2ccc(-c3ccc4ncccc4c3)c12` [Compound 1049, (R)-5-((4-Methoxy-5-(quinolin-6-yl)pyrrolo[2,1-f][1,2,4]triazin-2-yl)amino)-1-methylpiperidin-2-one] yielded an IC50 of 4.9 nM.
With `COc1nc(N[C@@H]2CCCOC2)nn2ccc(-c3ccc4ncccc4c3)c12` [Compound 1050, (R)-4-Methoxy-5-(quinolin-6-yl)-N-(tetrahydro-2H-pyran-3-yl)pyrrolo[2,1-f][1,2,4]triazin-2-amine] the IC50 was 13.5 nM.
In the case of `COc1nc(N[C@H]2C[C@@](C)(NC(C)=O)C2)nn2cc(F)c(-c3ccc4ncccc4c3)c12` [Compound 1052, N-(cis-3-((6-Fluoro-4-methoxy-5-(quinolin-6-yl)pyrrolo[2,1-f][1,2,4]triazin-2-yl)amino)-1-methylcyclobutyl)acetamide], the IC50 is reported as 4.5 nM.
Work on `COc1nc(N[C@H]2CC[C@@H](NC(C)=O)CC2)nn2cc(F)c(-c3ccc4ncccc4c3)c12` [Compound 1054, N-(cis-4-((6-Fluoro-4-methoxy-5-(quinolin-6-yl)pyrrolo[2,1-f][1,2,4]triazin-2-yl)amino)cyclohexyl)acetamide] yielded an IC50 of 2 nM.
Molecule `COc1nc(N[C@H]2CC[C@](C)(O)CC2)nn2cc(F)c(-c3ccc4ncccc4c3)c12` [Compound 1056, trans-4-((6-Fluoro-4-methoxy-5-(quinolin-6-yl)pyrrolo[2,1-f][1,2,4]triazin-2-yl)amino)-1-methylcyclohexan-1-ol] has an IC50 of 1.1 nM.
`COc1nc(N[C@H]2CCN(C)C[C@H]2F)nn2cc(F)c(-c3ccc4ncccc4c3)c12` [Compound 1057, 6-Fluoro-N-((3R,4S)-3-fluoro-1-methylpiperidin-4-yl)-4-methoxy-5-(quinolin-6-yl)pyrrolo[2,1-f][1,2,4]triazin-2-amine] showed an IC50 of 1.7 nM.
For `COc1nc(N[C@H]2CCN(CC(C)(C)O)C[C@H]2F)nn2cc(F)c(-c3ccc4ncccc4c3)c12` [Compound 1058, 1-((3R,4S)-3-Fluoro-4-((6-fluoro-4-methoxy-5-(quinolin-6-yl)pyrrolo[2,1-f][1,2,4]triazin-2-yl)amino)piperidin-1-yl)-2-methylpropan-2-ol], the IC50 was 2.3 nM.
For `COc1nc(N[C@H]2CCN(C3COC3)C[C@H]2F)nn2cc(F)c(-c3ccc4ncccc4c3)c12` [Compound 1059, 6-Fluoro-N-((3R,4S)-3-fluoro-1-(oxetan-3-yl)piperidin-4-yl)-4-methoxy-5-(quinolin-6-yl)pyrrolo[2,1-f][1,2,4]triazin-2-amine], the IC50 was 1.9 nM.
`COc1nc(N[C@H]2CCN(C(C)=O)C[C@H]2F)nn2cc(F)c(-c3ccc4ncccc4c3)c12` [Compound 1061, 1-((3R,4S)-3-Fluoro-4-((6-fluoro-4-methoxy-5-(quinolin-6-yl)pyrrolo[2,1-f][1,2,4]triazin-2-yl)amino)piperidin-1-yl)ethan-1-one] gave an IC50 of 0.9 nM.
With `COc1nc(N[C@@H]2CCN(C3COC3)CC2(F)F)nn2cc(F)c(-c3ccc4ncccc4c3)c12` [Compound 1062, (R)—N-(3,3-Difluoro-1-(oxetan-3-yl)piperidin-4-yl)-6-fluoro-4-methoxy-5-(quinolin-6-yl)pyrrolo[2,1-f][1,2,4]triazin-2-amine] the IC50 was 3.7 nM.
Work on `COc1nc(N[C@@H]2CCN(C(C)=O)CC2(F)F)nn2cc(F)c(-c3ccc4ncccc4c3)c12` [Compound 1064, (R)-1-(3,3-Difluoro-4-((6-fluoro-4-methoxy-5-(quinolin-6-yl)pyrrolo[2,1-f][1,2,4]triazin-2-yl)amino)piperidin-1-yl)ethan-1-one] yielded an IC50 of 2 nM.
In the case of `C[C@]1(O)CC[C@H](Nc2nc(OC3COC3)c3c(-c4ccc5ncccc5c4)ccn3n2)CC1` [Compound 1089, (1r,4r)-1-Methyl-4-((4-(oxetan-3-yloxy)-5-(quinolin-6-yl)pyrrolo[2,1-f][1,2,4]triazin-2-yl)amino)cyclohexan-1-ol], the IC50 is reported as 4.5 nM.
Molecule `CN1CC[C@H](Nc2nc(OC3COC3)c3c(-c4ccc5ncccc5c4)ccn3n2)[C@H](F)C1` [Compound 1090, N-((3R,4S)-3-Fluoro-1-methylpiperidin-4-yl)-4-(oxetan-3-yloxy)-5-(quinolin-6-yl)pyrrolo[2,1-f][1,2,4]triazin-2-amine] has an IC50 of 5.7 nM.
